In patent publication US11685732B2, “MYST family histone acetyltransferase inhibitors” (Epizyme, Inc., priority 2017, dated 2023):
Like-named read-outs stand apart in the source and are kept apart here.

Experiments:
KAT-6A = KAT-6A (Homo sapiens (Human), UniProt Q92794); assay: KAT-6A biochemical inhibition assay (SAMDI mass spectrometry)
Procedure: (§1) KAT-6A. Enzyme assay buffer was 50 mM Tris pH 8.0, 0.002% Tween20, 0.005% bovine skin gelatin, and 1 mM dithiothreitol (DTT). For determination of IC50 values, compounds were serially diluted with 2% (v/v) DMSO in the final reaction, pre-incubating each dilution of each compound with 40 μL of assay buffer containing KAT-6A enzyme (12.5 nM final concentration). 10 μL of assay buffer containing 1 μM peptide substrate and 1 μM acetyl coenzyme A (final concentrations) was added. Reactions (50 μL total) were then carried out at 25° C. for 90 minutes. Reactions were terminated by the addition of 0.5% formic acid (final concentration), and a sample of each reaction was analyzed by SAMDI Tech, Inc. (Chicago, Ill.) using self-assembled monolayer desorption/ionization time-of-flight mass spectrometry (Mrksich, M. (2008) Mass spectrometry of self-assembled monolayers: a new tool for molecular surface science. ACS Nano 2, 7-18).

KAT-5 = KAT-5 (Homo sapiens (Human), UniProt Q92993); assay: KAT-5 biochemical inhibition assay (SAMDI mass spectrometry)
Procedure: as §1, with “KAT-5. Enzyme assay” for “KAT-6A. Enzyme assay”, “buffer containing KAT-5 enzyme (9” for “buffer containing KAT-6A enzyme (12.5”, “KAT-5 enzyme (9 nM final” for “KAT-6A enzyme (12.5 nM final”, “substrate and 0.5 μM acetyl” for “substrate and 1 μM acetyl”

KAT-6A, sequence (Q92794 other isoform, or with tags, fused parts or gaps): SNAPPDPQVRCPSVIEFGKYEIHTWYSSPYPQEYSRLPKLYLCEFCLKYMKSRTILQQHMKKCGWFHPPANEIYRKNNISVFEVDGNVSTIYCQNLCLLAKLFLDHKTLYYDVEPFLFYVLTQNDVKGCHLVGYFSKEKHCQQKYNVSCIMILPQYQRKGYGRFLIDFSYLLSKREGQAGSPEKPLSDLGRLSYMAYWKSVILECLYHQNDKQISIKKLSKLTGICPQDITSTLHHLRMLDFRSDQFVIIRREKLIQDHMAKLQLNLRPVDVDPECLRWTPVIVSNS
KAT-5, sequence (Q92993 other isoform, or with tags, fused parts or gaps): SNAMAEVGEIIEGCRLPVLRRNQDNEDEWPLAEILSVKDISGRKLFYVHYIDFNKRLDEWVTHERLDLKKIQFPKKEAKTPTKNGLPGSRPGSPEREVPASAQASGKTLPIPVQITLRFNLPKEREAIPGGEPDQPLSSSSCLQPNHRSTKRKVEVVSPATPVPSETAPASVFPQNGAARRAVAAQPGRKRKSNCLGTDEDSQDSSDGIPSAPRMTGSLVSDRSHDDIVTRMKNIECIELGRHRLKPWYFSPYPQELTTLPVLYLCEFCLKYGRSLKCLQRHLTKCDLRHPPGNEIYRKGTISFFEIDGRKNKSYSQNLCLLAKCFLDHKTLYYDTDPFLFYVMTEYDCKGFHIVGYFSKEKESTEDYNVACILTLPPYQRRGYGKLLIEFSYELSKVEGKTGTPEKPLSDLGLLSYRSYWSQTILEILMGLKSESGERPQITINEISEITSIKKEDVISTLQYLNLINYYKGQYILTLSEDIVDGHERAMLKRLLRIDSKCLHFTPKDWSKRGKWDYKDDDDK

SMILES | IC50 (KAT-6A) | further results
Cc1c(-c2ccccc2)ccc(F)c1C(=O)NNS(=O)(=O)c1ccc(Cl)cc1 [Compound A-1] |  | IC50 (KAT-6A; Table 5): 10 to 50 µM
Cc1cccc(-c2cc(C)c(F)c(C(=O)NNS(=O)(=O)CC3CCN(C(=O)OC(C)(C)C)C3)c2)c1 (centres unmarked) [Compound A-2] |  | IC50 (KAT-6A; Table 5): > 100 µM
Cc1cccc(-c2cc(C)c(F)c(C(=O)NNS(=O)(=O)CC3CCNC3)c2)c1 (centres unmarked) [Compound A-3] |  | IC50 (KAT-6A; Table 5): > 100 µM
Cc1cccc(-c2cc(Cl)c(F)c(C(=O)NNS(=O)(=O)CC3CN(C(=O)OC(C)(C)C)CCO3)c2)c1 (centres unmarked) [Compound A-4] |  | IC50 (KAT-6A; Table 5): ≤ 10 µM
Cc1cccc(-c2cc(Cl)c(F)c(C(=O)NNS(=O)(=O)CC3CNCCO3)c2)c1 (centres unmarked) [Compound A-5] |  | IC50 (KAT-6A; Table 5): 10 to 50 µM
Cc1cccc(-c2cc(C)c(F)c(C(=O)NNS(=O)(=O)CC3CCCNC3)c2)c1 (centres unmarked) [Compound A-6] |  | IC50 (KAT-6A; Table 5): > 100 µM
Cc1cccc(-c2cc(Cl)c(F)c(C(=O)NNS(=O)(=O)C[C@H]3CCCNC3)c2)c1 [Compound A-7] |  | IC50 (KAT-6A; Table 5): > 100 µM
Cc1cccc(-c2cc(Cl)c(F)c(C(=O)NNS(=O)(=O)CC3CCCN(C)C3)c2)c1 (centres unmarked) [Compound A-8] |  | IC50 (KAT-6A; Table 5): > 100 µM
CCN1CCCC(CS(=O)(=O)NNC(=O)c2cc(-c3cccc(C)c3)cc(Cl)c2F)C1 (centres unmarked) [Compound A-9] |  | IC50 (KAT-6A; Table 5): > 100 µM
Cc1cccc(-c2cc(Cl)c(F)c(C(=O)NNS(=O)(=O)C[C@@H]3CCCNC3)c2)c1 [Compound A-10] |  | IC50 (KAT-6A; Table 5): > 100 µM
Cc1cccc(-c2cc(Cl)c(F)c(C(=O)NNS(=O)(=O)CC3CN(C)CCO3)c2)c1 (centres unmarked) [Compound A-11] |  | IC50 (KAT-5; Table 5): ≤ 10 µM; IC50 (KAT-6A; Table 5): ≤ 10 µM
Cc1cccc(-c2cc(Cl)c(F)c(C(=O)NNS(=O)(=O)CCCN(C)Cc3ccccc3)c2)c1 [Compound A-18] |  | IC50 (KAT-5; Table 5): > 100 µM; IC50 (KAT-6A; Table 5): > 100 µM
COc1cc(F)c(S(=O)(=O)NNC(=O)c2cc(-c3cn(C)cn3)cc(Cl)c2F)c(F)c1 [Compound I-421] | < 10 µM | 
CNCCOc1ccc(S(=O)(=O)NNC(=O)c2cc(-c3cn(C)cn3)cc(Cl)c2F)cc1 [Compound I-422] | > 100 µM | 
Cn1cnc(-c2cc(Cl)c(F)c(C(=O)NNS(=O)(=O)c3ccc(F)cc3F)c2)c1 [Compound I-423] | < 10 µM | 
CCN1CC(CS(=O)(=O)NNC(=O)c2cc(-c3cn(C)cn3)cc(Cl)c2F)CCC1=O (centres unmarked) [Compound I-424] | 10 to 50 µM | 
CCN(C)C(=O)N(C)C1CC(CS(=O)(=O)NNC(=O)c2cc(-c3cn(C)cn3)cc(Cl)c2F)C1 (centres unmarked) [Compound I-425] | 50 to 100 µM | 
COc1ccc(S(=O)(=O)NNC(=O)c2cc(-c3cn(C)cn3)cc(Cl)c2F)c(Cl)c1 [Compound I-426] | 10 to 50 µM | 
Cn1cnc(-c2cc(Cl)c(F)c(C(=O)NNS(=O)(=O)C3CCC4CCC3C4)c2)c1 (centres unmarked) [Compound I-427] | 10 to 50 µM | 
CCNC(=O)N(C)C1CC(CS(=O)(=O)NNC(=O)c2cc(-c3cn(C)cn3)cc(Cl)c2F)C1 (centres unmarked) [Compound I-428] | < 10 µM | 
Cn1cnc(-c2cc(Cl)c(F)c(C(=O)NNS(=O)(=O)c3cccc(O)c3)c2)c1 [Compound I-429] | < 10 µM | 

SMILES | IC50 (KAT-6A) | further results
Cn1cnc(-c2cc(Cl)c(F)c(C(=O)NNS(=O)(=O)c3cccnc3O)c2)c1 [Compound I-430] | 10 to 50 µM | 
Cn1cnc(-c2cc(Cl)c(F)c(C(=O)NNS(=O)(=O)CC3CCN(CC(F)(F)F)CC3)c2)c1 [Compound I-431] | 10 to 50 µM | 
CN(C)CCOc1cccc(S(=O)(=O)NNC(=O)c2cc(-c3cn(C)cn3)cc(Cl)c2F)c1 [Compound I-432] | < 10 µM | 
CO[C@H]1CCCC[C@@H]1CS(=O)(=O)NNC(=O)c1cc(-c2cn(C)cn2)cc(Cl)c1F [Compound I-434] | < 10 µM | 
CO[C@@H]1CCCC[C@@H]1CS(=O)(=O)NNC(=O)c1cc(-c2cn(C)cn2)cc(Cl)c1F [Compound I-435] | < 10 µM | 
COCCc1cn(Cc2ccc(OC)cc2)cc1-c1cc(Cl)c(F)c(C(=O)NNS(=O)(=O)CC2CCOCC2)c1 [Compound I-436] | > 100 µM | 
Cn1cnc(-c2cc(Cl)c(F)c(C(=O)NNS(=O)(=O)CC3CCCN(CC(F)(F)F)C3)c2)c1 (centres unmarked) [Compound I-437] | 10 to 50 µM | 
Cn1cnc(-c2cc(Cl)c(F)c(C(=O)NNS(=O)(=O)c3ccc(Cl)cc3F)c2)c1 [Compound I-438] | < 10 µM | 
CC(C)Oc1ccc(S(=O)(=O)NNC(=O)c2cc(-c3cn(C)cn3)cc(Cl)c2F)c(F)c1 [Compound I-439] | < 10 µM | 
COCCOc1ccc(S(=O)(=O)NNC(=O)c2cc(-c3cn(C)cn3)cc(Cl)c2F)c(F)c1 [Compound I-440] | < 10 µM | 
CCOc1ccc(S(=O)(=O)NNC(=O)c2cc(-c3cn(C)cn3)cc(Cl)c2F)c(F)c1 [Compound I-441] | < 10 µM | 
Cn1cnc(-c2cc(Cl)c(F)c(C(=O)NNS(=O)(=O)c3cccc(OCc4ccccc4)c3F)c2)c1 [Compound I-442] | < 10 µM | 
Cn1cnc(-c2cc(C(=O)NNS(=O)(=O)CC3CCCCC3)c(F)c(Cl)c2C#N)c1 [Compound I-443] | > 100 µM | 
Cn1cnc(-c2cc(Cl)c(F)c(C(=O)NNS(=O)(=O)c3cccc(O)c3F)c2)c1 [Compound I-444] | < 10 µM | 
Cn1cnc(-c2cc(Cl)c(F)c(C(=O)NNS(=O)(=O)C3CCN(CC(F)(F)F)CC3)c2)c1 [Compound I-445] | 10 to 50 µM | 
CC([C@H]1CC[C@@H](NC(=O)OC(C)(C)C)CC1)S(=O)(=O)NNC(=O)c1cc(-c2cn(C)cn2)cc(Cl)c1F (some centres unmarked) [Compound I-446] | < 10 µM | 
CC([C@H]1CC[C@H](NC(=O)OC(C)(C)C)CC1)S(=O)(=O)NNC(=O)c1cc(-c2cn(C)cn2)cc(Cl)c1F (some centres unmarked) [Compound I-447] | < 10 µM | 
CC([C@H]1CC[C@@H](N)CC1)S(=O)(=O)NNC(=O)c1cc(-c2cn(C)cn2)cc(Cl)c1F (some centres unmarked) [Compound I-448] | > 100 µM | 
CC([C@H]1CC[C@H](N)CC1)S(=O)(=O)NNC(=O)c1cc(-c2cn(C)cn2)cc(Cl)c1F (some centres unmarked) [Compound I-449] | > 100 µM | 
Cn1cnc(-c2cc(Cl)c(F)c(C(=O)NNS(=O)(=O)c3cc(OCc4ccccc4)ccc3F)c2)c1 [Compound I-450] | < 10 µM | 
COc1cc(F)c(S(=O)(=O)NNC(=O)c2cc(-c3cn(C)cn3)cc(Cl)c2F)cc1OCc1ccccc1 [Compound I-451] | 10 to 50 µM | 

SMILES | IC50 (KAT-6A) | further results
Cn1cnc(-c2cc(Cl)c(F)c(C(=O)NNS(=O)(=O)C3CCN(CC(F)(F)F)C3)c2)c1 (centres unmarked) [Compound I-452] | 10 to 50 µM | 
Cn1cnc(-c2cc(Cl)c(F)c(C(=O)NNS(=O)(=O)c3cc(O)ccc3F)c2)c1 [Compound I-453] | < 10 µM | 
CCNC(=O)N[C@H]1CC[C@@H](C(C)S(=O)(=O)NNC(=O)c2cc(-c3cn(C)cn3)cc(Cl)c2F)CC1 (some centres unmarked) [Compound I-454] | < 10 µM | 
CCNC(=O)N[C@H]1CC[C@H](C(C)S(=O)(=O)NNC(=O)c2cc(-c3cn(C)cn3)cc(Cl)c2F)CC1 (some centres unmarked) [Compound I-455] | 10 to 50 µM | 
Cn1cnc(-c2cc(Cl)c(F)c(C(=O)NNS(=O)(=O)C3CCCN(CC(F)(F)F)C3)c2)c1 (centres unmarked) [Compound I-456] | 10 to 50 µM | 
COc1ccc(S(=O)(=O)NNC(=O)c2cc(-c3cn(C)cn3)cc(Cl)c2F)cc1OCc1ccccc1 [Compound I-457] | 10 to 50 µM | 
COc1cc(F)c(S(=O)(=O)NNC(=O)c2cc(-c3cn(C)cn3)cc(Cl)c2F)cc1O [Compound I-458] | < 10 µM | 
COc1ccc(S(=O)(=O)NNC(=O)c2cc(-c3cn(C)cn3)cc(Cl)c2F)cc1O [Compound I-459] | < 10 µM | 
Cn1cnc(-c2cc(Cl)c(F)c(C(=O)NNS(=O)(=O)CC3CC3)c2)c1 [Compound I-460] | 10 to 50 µM | 
COCCOC1CCCC(CS(=O)(=O)NNC(=O)c2cc(-c3cn(C)cn3)cc(Cl)c2F)C1 (centres unmarked) [Compound I-461] | < 10 µM | 
COc1ccc(S(=O)(=O)NNC(=O)c2cc(-c3cn(C)cn3)cc(Cl)c2F)c(F)c1OCc1ccccc1 [Compound I-462] | 10 to 50 µM | IC50 (KAT-5): 10 to 50 µM
COCCOC1CCC(CS(=O)(=O)NNC(=O)c2cc(-c3cn(C)cn3)cc(Cl)c2F)CC1 (centres unmarked) [Compound I-463] | < 10 µM | 
COc1cnc(Cl)c(S(=O)(=O)NNC(=O)c2cc(-c3cn(C)cn3)cc(Cl)c2F)c1 [Compound I-464] | < 10 µM | 
COc1ccc(S(=O)(=O)NNC(=O)c2cc(-c3cn(C)cn3)cc(Cl)c2F)c(F)c1O [Compound I-465] | < 10 µM | 
Cn1cnc(-c2cc(Cl)c(F)c(C(=O)NNS(=O)(=O)C[C@H]3CC[C@H](NCC(F)(F)F)CC3)c2)c1 [Compound I-466] | < 10 µM | 
COc1cnc(S(=O)(=O)NNC(=O)c2cc(-c3cn(C)cn3)cc(Cl)c2F)c(F)c1 [Compound I-468] | < 10 µM | IC50 (KAT-5): < 10 µM
Cn1cnc(-c2cc(Cl)c(F)c(C(=O)NNS(=O)(=O)CC3CN(C(=O)OC(C)(C)C)CCN3C(=O)OC(C)(C)C)c2)c1 (centres unmarked) [Compound I-469] | > 100 µM | IC50 (KAT-5): > 100 µM
CC(=O)NCc1c(-c2cn(C)cn2)cc(C(=O)NNS(=O)(=O)CC2CCCCC2)c(F)c1Cl [Compound I-470] | 10 to 50 µM | IC50 (KAT-5): > 100 µM
Cn1cnc(-c2cc(Cl)c(F)c(C(=O)NNS(=O)(=O)CC3CNCCN3)c2)c1 (centres unmarked) [Compound I-472] | > 100 µM | IC50 (KAT-5): > 100 µM
